Values quoted from earlier work as cited in patent US20050009744A1, “Treatment of congestive heart failure” (priority 2001, published 2005).

Details: Lysko et al, J Cardiovasc Pharmacol 2000

Compound: COc1ccccc1OCCNCC(O)COc1cccc2[nH]c3ccccc3c12 (stereo not shown) [Carvedilol, carvedilol]
- antioxidant activity: far greater antioxidant activity than e.g. metoprolol
